Data on 8 molecules can be found in ChEMBL document CHEMBL4431318, “Design, synthesis and biological evaluation of novel 5-fluoro-1H-benzimidazole-4-carboxamide derivatives as potent PARP-1 inhibitors” (Bioorg Med Chem Lett, 2016).

Structures are written as SMILES.

The target in assay [1] is T1, Poly [ADP-ribose] polymerase 1 (Homo sapiens, UniProt P09874). Put plainly: Inhibition of PARP1 (unknown origin).
In assay [2] the test system is HCT-116. Put plainly: Cytotoxicity against human HCT116 cells by SRB assay. In kind it is functional, cell-based.
For assay [3], the system named is HCT-116. Put plainly: Potency index, ratio of IC50 for veliparib to IC50 for test compound against human HCT116 cells. In kind it is functional.
In assay [4] the target is T1, Poly [ADP-ribose] polymerase 1. Conditions: A549.
Description: Inhibition of PARP1 in human A549 cells assessed as potentiation of TMZ-mediated cytotoxicity at 0.5 uM by SRB assay

T1 sequence (P09874 whole entry): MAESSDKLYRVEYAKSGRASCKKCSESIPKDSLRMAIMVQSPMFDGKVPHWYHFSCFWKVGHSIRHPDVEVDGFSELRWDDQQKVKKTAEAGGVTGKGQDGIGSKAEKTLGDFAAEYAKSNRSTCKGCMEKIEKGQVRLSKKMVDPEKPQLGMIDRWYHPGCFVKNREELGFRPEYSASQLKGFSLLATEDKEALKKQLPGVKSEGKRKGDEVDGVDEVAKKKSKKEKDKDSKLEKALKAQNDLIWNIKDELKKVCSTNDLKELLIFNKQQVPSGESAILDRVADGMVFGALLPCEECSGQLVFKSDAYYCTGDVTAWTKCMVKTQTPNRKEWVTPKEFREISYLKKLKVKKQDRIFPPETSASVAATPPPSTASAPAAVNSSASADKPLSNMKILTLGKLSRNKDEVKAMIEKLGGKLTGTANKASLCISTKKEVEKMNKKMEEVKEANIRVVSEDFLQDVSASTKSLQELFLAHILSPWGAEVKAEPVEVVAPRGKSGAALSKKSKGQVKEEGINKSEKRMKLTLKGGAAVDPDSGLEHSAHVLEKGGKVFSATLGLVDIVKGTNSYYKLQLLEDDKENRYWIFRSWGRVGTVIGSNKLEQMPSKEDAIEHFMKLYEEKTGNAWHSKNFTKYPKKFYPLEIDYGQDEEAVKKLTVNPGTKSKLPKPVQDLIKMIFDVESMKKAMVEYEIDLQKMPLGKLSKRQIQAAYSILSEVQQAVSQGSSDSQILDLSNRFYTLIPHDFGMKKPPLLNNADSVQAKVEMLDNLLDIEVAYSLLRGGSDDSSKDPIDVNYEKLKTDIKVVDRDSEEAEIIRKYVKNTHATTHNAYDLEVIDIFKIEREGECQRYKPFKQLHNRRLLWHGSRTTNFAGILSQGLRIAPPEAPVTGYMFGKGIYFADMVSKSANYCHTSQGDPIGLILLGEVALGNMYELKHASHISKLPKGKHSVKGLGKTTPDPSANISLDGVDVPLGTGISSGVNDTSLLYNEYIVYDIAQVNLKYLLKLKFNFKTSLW

What is called IC50 is the point on the concentration scale where inhibition reaches its midpoint. Take `C[C@]1(c2nc3c(C(N)=O)c(F)ccc3[nH]2)CCCN1`: the IC50 in assay [1] was 5.7 nM; with HCT-116 [2] (Homo sapiens, HCT-116), above 100000 nM.
Consider `NC(=O)c1c(F)ccc2[nH]c(-c3ccc(N4CCNCC4)cc3)nc12`, for which the IC50 in assay [1] stood at 43.7 nM; in the assay on HCT-116 [2] (Homo sapiens, HCT-116) it was 7400 nM. Moreover, the “Ratio IC50” value in the assay on HCT-116 [3] is listed as 8.6.
On to `CCCN1CCC(c2nc3c(C(N)=O)c(F)ccc3[nH]2)CC1`, for which the IC50 in assay [1] came out at 29.8 nM; with HCT-116 [2] (Homo sapiens, HCT-116) it was 65500 nM.
The molecule `C[C@]1(c2nc3c(C(N)=O)cccc3[nH]2)CCCN1` [VELIPARIB] registered an IC50 in the assay with HCT-116 [2] (hct-116) of 64000 nM. The PF50 in assay [4] amounted to 2.2.
Turning to `CN1CCC[C@@]1(C)c1nc2c(C(N)=O)c(F)ccc2[nH]1`, the concentration for half-maximal inhibition (IC50) is 21.7 nM in assay [1] and above 100000 nM in the assay on HCT-116 [2] (Homo sapiens, HCT-116).
Consider `NC(=O)c1c(F)ccc2[nH]c(C3CCCNC3)nc12` (configuration not stated), for which the midpoint of inhibition in assay [1], the IC50, lay at 25.8 nM.
`NC(=O)c1c(F)ccc2[nH]c(-c3ccc(N4CCOCC4)cc3)nc12`: the 50% inhibitory concentration (IC50) in assay [1] came out at 21.8 nM; in the assay on HCT-116 [2] (Homo sapiens, HCT-116), 27000 nM. The “Ratio IC50” value with HCT-116 [3] is reported as 2.3.
As to `NC(=O)c1c(F)ccc2[nH]c(C3CCNCC3)nc12`, the IC50 in assay [1] was 39.1 nM; with HCT-116 [2] (Homo sapiens, HCT-116) it was above 100000 nM.
